{"source": "patent EP0097070A2", "about": "“Process for preparing ellipticine derivatives, compounds so obtained and medicaments containing them” (ELF SANOFI, priority 1982, dated 1983)", "key": {"[1]": {"system": "cellules leucémiques L 1210", "assay": "Cytotoxicity: growth inhibition of L 1210 cells in culture", "format": "cell-based", "details": "concentration giving 50 p. 100 inhibition of cell multiplication, 48 hours of culture, DMSO 1 p. 100 final, read-out: ID50 (the source's name)", "from_the_text": "Les substances à étudier sont dissoutes dans du DMSO (1 p. 100 final) dont on a préalablement vérifié l'innocuité. Des quantités croissantes du produit à tester sont ajoutées au temps ? des numérations sont faites après 24 heures et 48 heures de contact. Des sérias témoins sont constituées avec ces quantités de DMSO équivalentes à celles des séries traitées. […] 5 Le pourcentage d'inhibition de la croissance cellulaire est déterminé par le rapport […] de croissance du témoin sur […] de croissance des essais pour différentes concentrations de produit à tester après 24 heures et 48 heures de culture Une relation dose effet est déterminée selon […] et WILCOXON (C. DUPONT, […]."}, "[2]": {"system": "souris femelles de type DSA/2", "details": "mouse, in vivo, ip, 43200 min", "from_the_text": "Cette étude, effectuée sur des souris femelles de type DSA/2 d'un poids corporel moyen de 20 g a permis de déterminer la DL0, qui représente la dose unique maximum administrable par une injection intrapéritonéale sans qu'aucune mort intervienne dans les 30 jours qui suivent l'administration du produit."}, "[3]": {"system": "cellules tumorales L 1210", "assay": "Antitumour effect: increase in life span of mice inoculated with L 1210 cells", "format": "in vivo, souris", "details": "10^5 L 1210 cells i.p.; compound i.p. at dose DL0/2 (half the LD0 dose), 20 hours after inoculation; versus control animals; significant if above 25 p. 100", "from_the_text": "Les cellules tumorales L 1210 sont inoculées par la voie intrapéritonéale à ces souris femelles OBA/2 d'un poids corporel moyen de 20g en une injection unique de 10^5 cellules; chez les animaux traités, le composé étudié est injecté à la dose de OL0/2 également par la voie intrapéritonéale 20 heures après la première injection des cellules L 1210.\nL'effet antitumoral est apprécié par la détermination de l'augmentation de la durée de survie (ILS : increase in life Span) des animaux traités par rapport aux animaux témoins qui n'ont reçu que les cellules tumorales.\nL'augmentation de la durée de survie est considérée comme significative lorsqu'elle est supérieure à 25 p. 100.\nLes résultats obtenus sont consignés dans le tableau suivant qui indique pour les dérivés testés, le pourcentage d'augmentation de la durée de survie par rapport au témoin."}}, "note": "Read-outs that look alike come from different tables or passages of the source."}
{"molecule": "CC(=O)NC(CSc1c(O)ccc2[nH]c3c(C)c4cc[n+](C)cc4c(C)c3c12)C(=O)O", "note": "(stereo not shown) [dérivé n° 8, Hexafluorophosphate de méthyl-2 hydroxy-9 N-acétyl cystéin-10 ellipticinium]", "values": [{"measurement": "IC50", "setting": "[1]; Mus musculus, L1210", "result": 1120, "unit": "nM"}]}
{"molecule": "acétate de méthyl-2 oxo-9 adényl-10 ellipticinium [dérivé n° 10]", "values": [{"measurement": "IC50", "setting": "[1]", "result": 500, "unit": "nM"}]}
{"molecule": "Cc1c2cc[n+](C)cc2c(C)c2c1[nH]c1ccc(O)c(N=CC(=O)O)c12", "note": "[dérivé n° 3]", "values": [{"measurement": "DL0", "setting": "[2]", "result": 20, "unit": "mg/kg"}, {"measurement": "IC50", "setting": "[1]; Mus musculus, L1210", "result": 540, "unit": "nM"}]}
{"molecule": "acétate de méthyl -2 oxo -9 (guanylyl -5' -P)-10 ellipticinium [dérivé n° 13]", "values": [{"measurement": "IC50", "setting": "[1]", "result": "> 1000", "unit": "nM"}]}
{"molecule": "Cc1c2cc[n+](C)cc2c(C)c2c1[nH]c1ccc(O)c(N=C(Cc3c[nH]cn3)C(=O)O)c12", "note": "[dérivé n° 4]", "values": [{"measurement": "IC50", "setting": "[1]; Mus musculus, L1210", "result": 2460, "unit": "nM"}]}
{"molecule": "acétate de méthyl-2 oxo -9 (adényl -5'-P)-10 ellioticinium [dérivé n° 12]", "values": [{"measurement": "IC50", "setting": "[1]", "result": "> 800", "unit": "nM"}]}
{"molecule": "CC(=Nc1c(O)ccc2[nH]c3c(C)c4cc[n+](C)cc4c(C)c3c12)C(=O)O", "note": "[dérivé n° 5, scétate ce méthyl-2 hydroxy-9 elanine-10 ellipricinium]", "values": [{"measurement": "DL0", "setting": "[2]", "result": 20, "unit": "mg/kg"}, {"measurement": "IC50", "setting": "[1]; Mus musculus, L1210", "result": 200, "unit": "nM"}]}
{"molecule": "Cc1c2cc[n+](C)cc2c(C)c2c1[nH]c1ccc(O)c(N=C(C(=O)O)C(C)C)c12", "note": "[dérivé n° 2, acétate de méthyl-2 hydroxy-9 valine 10 ellipticinium]", "values": [{"measurement": "POURCENTAGE D'AUGMENTATION DE LA DUREE DE SURVIE (ILS)", "setting": "[3]", "result": "31,3 p. 100"}, {"measurement": "DL0", "setting": "[2]", "result": 15, "unit": "mg/kg"}, {"measurement": "IC50", "setting": "[1]; Mus musculus, L1210", "result": 310, "unit": "nM"}]}
{"molecule": "acétate de méthyl-2 oxo-9 guanosyl-10 ellipticinium [dérivé n° 11]", "values": [{"measurement": "IC50", "setting": "[1]", "result": 760, "unit": "nM"}]}
{"molecule": "Cc1c2cc[n+](C)cc2c(C)c2c1[nH]c1ccc(O)c(N=C(CC(C)C)C(=O)O)c12", "note": "[dérivé n° 1, acétate es méthyl-2 hydroxy-9 leucine-10, elliopticinium]", "values": [{"measurement": "POURCENTAGE D'AUGMENTATION DE LA DUREE DE SURVIE (ILS)", "setting": "[3]", "result": 35, "unit": "p. 100"}, {"measurement": "DL0", "setting": "[2]", "result": 10, "unit": "mg/kg"}, {"measurement": "IC50", "setting": "[1]; Mus musculus, L1210", "result": 280, "unit": "nM"}]}
{"molecule": "Hexafluorophosphate de méthyl-2 hydroxy-8 méthylcystéine-10 ellipticinium [dérivé n° 7]", "values": [{"measurement": "IC50", "setting": "[1]", "result": 790, "unit": "nM"}]}
{"molecule": "Cc1c2cc[n+](C)cc2c(C)c2c1[nH]c1ccc(O)c(SCC(NC(=O)CCC(N)C(=O)O)C(=O)NCC(=O)O)c12", "note": "(stereo not shown) [dérivé n° 9, hexafluorophosphata de méthyl-2 hydroxy-9 glutathion-10 ellipticinium]", "values": [{"measurement": "IC50", "setting": "[1]; Mus musculus, L1210", "result": 1610, "unit": "nM"}]}
{"molecule": "Cc1c2cc[n+](C)cc2c(C)c2c1[nH]c1ccc(O)c(N=C(CCC(=O)O)C(=O)O)c12", "note": "[dérivé n° 6, acétate de méthyl-2 hydroxy-9 glutamyle-10 ellipticinium]", "values": [{"measurement": "IC50", "setting": "[1]; Mus musculus, L1210", "result": 23500, "unit": "nM"}]}
